Source: patent publication US10968266B2, “GIP peptide analogues” (University of Copenhagen, priority 2014, dated 2021)
No end group written: not given here.

What was measured:
human GIP receptor [1] = biological target: T1, human GIP receptor (Homo sapiens, UniProt P48546); assay: cAMP accumulation assay (agonism, antagonism, Schild analysis), COS-7 cells transfected with human GIP receptor (Example 7); assay type: cell-based; conditions: for Slope of Schild plot: GIP(1-42) dose-response curves with fixed antagonist concentrations
T1 construct: host or cells: COS-7 cells, transient transfection (calcium phosphate precipitation), pCMV-Script vector
T1 sequence (P48546 22-466): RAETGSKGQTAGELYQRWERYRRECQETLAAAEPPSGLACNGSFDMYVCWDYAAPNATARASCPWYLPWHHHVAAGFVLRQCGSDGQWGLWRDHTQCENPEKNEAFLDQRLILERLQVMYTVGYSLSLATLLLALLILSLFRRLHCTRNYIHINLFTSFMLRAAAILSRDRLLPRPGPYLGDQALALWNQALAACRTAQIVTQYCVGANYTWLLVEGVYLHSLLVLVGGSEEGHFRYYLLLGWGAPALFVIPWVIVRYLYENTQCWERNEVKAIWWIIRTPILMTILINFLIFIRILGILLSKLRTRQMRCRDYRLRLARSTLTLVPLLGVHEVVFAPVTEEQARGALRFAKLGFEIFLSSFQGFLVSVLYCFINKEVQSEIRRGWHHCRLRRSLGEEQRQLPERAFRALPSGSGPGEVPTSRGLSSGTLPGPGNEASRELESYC
Method: COS-7 cells were grown in 10% CO2 and at 37° C. in Dulbecco's modified Eagle's medium 1885 supplemented with 10% fetal bovine serum, 2 mM glutamine, 180 units/ml penicillin, and 45 µg/ml streptomycin. Transfection of COS-7 cells was performed using the calcium phosphate precipitation method with chloroquine addition as previously described (Kissow et al., 2012).
Two days after transfection the cells were washed once with HEPES buffered saline (HBS) and incubated with HBS and 0.5 mM 3-isobutyl-1-methylxanthine (IBMX) for 30 minutes at 37° C. […] After ligand incubation, the HitHunter™ cAMP XS assay (an enzyme fragment complementation-based assay, DiscoveRx, Birmingham, United Kingdom) was carried out according to the manufacturer's instructions. All experiments were made in duplicates, and repeated at least three times. Luminescence was measured by Perkin Elmer™ EnVision 2104 Multilabled reader (Skovlunde, Danmark). In brief, the cells were lysed in the wells, the enzyme fragment-cAMP-antibody, an enzyme fragment and the enzyme substrates were added followed by 1 hour incubation at room temperature on shaker tray. The other enzyme fragment was added to the wells and incubated for 4 hours on shaker tray followed by measurements of luminescence. The ligand-induced cAMP competed with the binding of antibody to the first enzyme fragment and left the two fragments to fuse. The enzyme complex hydrolyzed the substrates and yielded luminescence. The number “n” refers to individual experiments with separate transfections although from same cell line.
IC50, EC50, and Kd/Ki values were determined by nonlinear regression. These, as well as maximal binding capacity (Bmax) values and Schild plot analysis were carried out with the GraphPad Prism 6.0 software (GraphPad, San Diego, Calif., USA) and Microsoft Excel™. Statistical analyses (unpaired t-tests) of two parameters were also performed with GraphPad Prism 6.0. The calculations of Bmax and Ki values were based on the formula for one class of binding sites in homologous competition binding studies and the Cheng Prussoffs formula, respectively (DeBlasi et al., 1989). Kd is the dissociation constant determined by homologous receptor binding. […] Schild plots were performed with log (DR-1) (ordinate) and log(antagonist concentration) (abscissa) to estimate the slopes and Ki values (Lazareno and Birdsall, 1993).

human GIP receptor [2] = biological target: T1, human GIP receptor; assay: Competitive binding assay with 125I-labelled GIP radioligands, COS-7 cells transfected with human GIP receptor (Example 7); conditions: for fold change GIP(1-30)NH2 / Competitive binding fold (fold change of GIP(1-30)NH2 affinity): relative to GIP(1-30)NH2; for Competitive binding fold (fold change of GIP(1-30)NH2 affinity): radioligand 125I-GIP(1-42)
Method: Transfection of COS-7 cells was performed using the calcium phosphate precipitation method with chloroquine addition as previously described (Kissow et al., 2012). […] Nonspecific binding was determined as the binding of radioligand to untransfected cells. All determinations were made in duplicates, and all experiments repeated at least three times. The samples were analyzed for radioactivity using a Wallac Wizard 1470 Gamma Counter (GMI Inc., Minnesota, USA). The number “n” refers to individual experiments with separate transfections although from same cell line. IC50, EC50, and Kd/Ki values were determined by nonlinear regression. […] Statistical analyses (unpaired t-tests) of two parameters were also performed with GraphPad Prism 6.0. The calculations of Bmax and Ki values were based on the formula for one class of binding sites in homologous competition binding studies and the Cheng Prussoffs formula, respectively (DeBlasi et al., 1989). Kd is the dissociation constant determined by homologous receptor binding. […] Schild plots were performed with log (DR-1) (ordinate) and log(antagonist concentration) (abscissa) to estimate the slopes and Ki values (Lazareno and Birdsall, 1993).

[3] = inhibition of GIP(1-42) at 50-80% of max receptor activation

CC[C@H](C)[C@H](NC(=O)[C@H](CO)NC(=O)[C@H](Cc1ccc(O)cc1)NC(=O)[C@H](CC(=O)O)NC(=O)[C@H](CO)NC(=O)[C@@H](NC(=O)[C@H](Cc1ccccc1)NC(=O)[C@@H](NC(=O)CNC(=O)[C@H](CCC(=O)O)NC(=O)[C@H](C)NC(=O)[C@@H](N)Cc1ccc(O)cc1)[C@@H](C)O)[C@@H](C)CC)C(=O)N[C@@H](C)C(=O)N[C@@H](CCSC)C(=O)N[C@@H](CC(=O)O)C(=O)N[C@@H](CCCCN)C(=O)N[C@H](C(=O)N[C@@H](Cc1c[nH]cn1)C(=O)N[C@@H](CCC(N)=O)C(=O)N[C@@H](CCC(N)=O)C(=O)N[C@@H](CC(=O)O)C(=O)N[C@@H](Cc1ccccc1)C(=O)N[C@H](C(=O)N[C@@H](CC(N)=O)C(=O)N[C@@H](Cc1c[nH]c2ccccc12)C(=O)N[C@@H](CC(C)C)C(=O)N[C@@H](CC(C)C)C(=O)N[C@@H](C)C(=O)N[C@@H](CCC(N)=O)C(=O)N[C@@H](CCCCN)C(N)=O)C(C)C)[C@@H](C)CC [GIP(1-30)NH2, reference compound]
Intrinsic agonistic activity in cAMP accumulation (human GIP receptor [1]; agonist mode): full agonist

CC[C@H](C)[C@H](NC(=O)[C@H](CO)NC(=O)[C@H](Cc1ccc(O)cc1)NC(=O)[C@H](CC(=O)O)NC(=O)[C@H](CO)NC(=O)[C@@H](NC(=O)[C@H](Cc1ccccc1)NC(=O)[C@@H](NC(=O)CNC(=O)[C@H](CCC(=O)O)NC(=O)[C@H](C)N)[C@@H](C)O)[C@@H](C)CC)C(=O)N[C@@H](C)C(=O)N[C@@H](CCSC)C(=O)N[C@@H](CC(=O)O)C(=O)N[C@@H](CCCCN)C(=O)N[C@H](C(=O)N[C@@H](Cc1c[nH]cn1)C(=O)N[C@@H](CCC(N)=O)C(=O)N[C@@H](CCC(N)=O)C(=O)N[C@@H](CC(=O)O)C(=O)N[C@@H](Cc1ccccc1)C(=O)N[C@H](C(=O)N[C@@H](CC(N)=O)C(=O)N[C@@H](Cc1c[nH]c2ccccc12)C(=O)N[C@@H](CC(C)C)C(=O)N[C@@H](CC(C)C)C(=O)N[C@@H](C)C(=O)N[C@@H](CCC(N)=O)C(=O)N[C@@H](CCCCN)C(N)=O)C(C)C)[C@@H](C)CC [GIP(2-30)NH2]
IC50 (human GIP receptor [2]; radioligand 125I-GIP(1-30)NH2): 26 nM | fold change GIP(1-30)NH2 (human GIP receptor [2]; radioligand 125I-GIP(1-30)NH2): 84.3 fold | Competitive binding fold (fold change of GIP(1-30)NH2 affinity) (human GIP receptor [2]): 16 fold | IC50 (human GIP receptor [2]; radioligand 125I-GIP(2-30)NH2): 2.7 nM | fold change GIP(1-30)NH2 (human GIP receptor [2]; radioligand 125I-GIP(2-30)NH2): 10.5 fold | IC50 (human GIP receptor [2]; radioligand 125I-GIP(3-30)NH2): 7.7 nM | fold change GIP(1-30)NH2 (human GIP receptor [2]; radioligand 125I-GIP(3-30)NH2): 4.6 fold | Slope of Schild plot (human GIP receptor [1]): 0.49±0.14 | Fold lower agonist potency than GIP(1-30)NH2 (human GIP receptor [1]; agonist mode): > 3000 fold | Intrinsic agonistic activity in cAMP accumulation (human GIP receptor [1]; agonist mode): weak partial agonist | log EC50, cAMP accumulation (human GIP receptor [1]; agonist mode, given with negative sign): −8.43±0.33 | IC50 (human GIP receptor [1]; [3]): 21.7 nM

CC[C@H](C)[C@H](NC(=O)[C@H](CO)NC(=O)[C@H](Cc1ccc(O)cc1)NC(=O)[C@H](CC(=O)O)NC(=O)[C@H](CO)NC(=O)[C@@H](NC(=O)[C@H](Cc1ccccc1)NC(=O)[C@@H](NC(=O)CN)[C@@H](C)O)[C@@H](C)CC)C(=O)N[C@@H](C)C(=O)N[C@@H](CCSC)C(=O)N[C@@H](CC(=O)O)C(=O)N[C@@H](CCCCN)C(=O)N[C@H](C(=O)N[C@@H](Cc1c[nH]cn1)C(=O)N[C@@H](CCC(N)=O)C(=O)N[C@@H](CCC(N)=O)C(=O)N[C@@H](CC(=O)O)C(=O)N[C@@H](Cc1ccccc1)C(=O)N[C@H](C(=O)N[C@@H](CC(N)=O)C(=O)N[C@@H](Cc1c[nH]c2ccccc12)C(=O)N[C@@H](CC(C)C)C(=O)N[C@@H](CC(C)C)C(=O)N[C@@H](C)C(=O)N[C@@H](CCC(N)=O)C(=O)N[C@@H](CCCCN)C(N)=O)C(C)C)[C@@H](C)CC [GIP(4-30)NH2]
Competitive binding fold (fold change of GIP(1-30)NH2 affinity) (human GIP receptor [2]): 24 fold | Slope of Schild plot (human GIP receptor [1]): 0.75±0.02 | IC50 (human GIP receptor [1]; [3]): 108 nM

CC[C@H](C)[C@H](N)C(=O)N[C@@H](CO)C(=O)N[C@@H](CC(=O)O)C(=O)N[C@@H](Cc1ccc(O)cc1)C(=O)N[C@@H](CO)C(=O)N[C@H](C(=O)N[C@@H](C)C(=O)N[C@@H](CCSC)C(=O)N[C@@H](CC(=O)O)C(=O)N[C@@H](CCCCN)C(=O)N[C@H](C(=O)N[C@@H](Cc1c[nH]cn1)C(=O)N[C@@H](CCC(N)=O)C(=O)N[C@@H](CCC(N)=O)C(=O)N[C@@H](CC(=O)O)C(=O)N[C@@H](Cc1ccccc1)C(=O)N[C@H](C(=O)N[C@@H](CC(N)=O)C(=O)N[C@@H](Cc1c[nH]c2ccccc12)C(=O)N[C@@H](CC(C)C)C(=O)N[C@@H](CC(C)C)C(=O)N[C@@H](C)C(=O)N[C@@H](CCC(N)=O)C(=O)N[C@@H](CCCCN)C(N)=O)C(C)C)[C@@H](C)CC)[C@@H](C)CC [GIP(7-30)NH2, reference compound]
Slope of Schild plot (human GIP receptor [1]): 0.17±0.03 | IC50 (human GIP receptor [1]; [3]): 137 nM

CC[C@H](C)[C@H](NC(=O)[C@H](CO)NC(=O)[C@H](Cc1ccc(O)cc1)NC(=O)[C@H](CC(=O)O)NC(=O)[C@H](CO)NC(=O)[C@@H](NC(=O)[C@H](Cc1ccccc1)NC(=O)[C@@H](NC(=O)CNC(=O)[C@@H](N)CCC(=O)O)[C@@H](C)O)[C@@H](C)CC)C(=O)N[C@@H](C)C(=O)N[C@@H](CCSC)C(=O)N[C@@H](CC(=O)O)C(=O)N[C@@H](CCCCN)C(=O)N[C@H](C(=O)N[C@@H](Cc1c[nH]cn1)C(=O)N[C@@H](CCC(N)=O)C(=O)N[C@@H](CCC(N)=O)C(=O)N[C@@H](CC(=O)O)C(=O)N[C@@H](Cc1ccccc1)C(=O)N[C@H](C(=O)N[C@@H](CC(N)=O)C(=O)N[C@@H](Cc1c[nH]c2ccccc12)C(=O)N[C@@H](CC(C)C)C(=O)N[C@@H](CC(C)C)C(=O)N[C@@H](C)C(=O)N[C@@H](CCC(N)=O)C(=O)N[C@@H](CCCCN)C(N)=O)C(C)C)[C@@H](C)CC [hGIP(3-30)]
Fold shift in the dose-response curve of human GIP(1-42) (human GIP receptor [1]; 1 μM antagonist): 281 fold

DYSIAMDKIHQQDFVNWLLAQK-NH2 [GIP(9-30)NH2]
cAMP accumulation logIC50 ± SEM (antagonism) (human GIP receptor [1]; inhibition of GIP(1-42) at 50-80% of max receptor activation, given with negative sign): −6.35 ± 0.6 | Fold lower antagonistic potency (right-shift) compared to GIP(3-30)NH2 (human GIP receptor [1]; inhibition of submaximal GIP(1-42) activation): 38 fold

porcine GIP(3-42): Porcine GIP(3-42), arginine in position 18 and serine in position 34; custom synthesized by PolyPeptide Laboratories (EGTFISDYSIAMDKIRQQDFVNWLLAQKGKKSDWKHNITQ) [reference compound]
Antagonism of GIP(1-42)-induced cAMP response (in words) (human GIP receptor [1]): higher potency compared to human GIP (3-42), yet not as high as human GIP(3-30)NH2 | Intrinsic agonistic activity in cAMP accumulation (human GIP receptor [1]; agonist mode): neither of the GIP(3-42) variants had any intrinsic agonistic activity
